For 32 molecules, IC50 and inhibition results are on record in ChEMBL document CHEMBL5038570, “Discovery of Novel Pyrrolo[2,3-d]pyrimidine-based Derivatives as Potent JAK/HDAC Dual Inhibitors for the Treatment of Refractory Solid Tumors” (J Med Chem, 2022).

Experiment [1] deals with T1, Protein deacetylase HDAC6 (Homo sapiens, UniProt Q9UBN7).
T1 sequence (Q9UBN7 whole entry): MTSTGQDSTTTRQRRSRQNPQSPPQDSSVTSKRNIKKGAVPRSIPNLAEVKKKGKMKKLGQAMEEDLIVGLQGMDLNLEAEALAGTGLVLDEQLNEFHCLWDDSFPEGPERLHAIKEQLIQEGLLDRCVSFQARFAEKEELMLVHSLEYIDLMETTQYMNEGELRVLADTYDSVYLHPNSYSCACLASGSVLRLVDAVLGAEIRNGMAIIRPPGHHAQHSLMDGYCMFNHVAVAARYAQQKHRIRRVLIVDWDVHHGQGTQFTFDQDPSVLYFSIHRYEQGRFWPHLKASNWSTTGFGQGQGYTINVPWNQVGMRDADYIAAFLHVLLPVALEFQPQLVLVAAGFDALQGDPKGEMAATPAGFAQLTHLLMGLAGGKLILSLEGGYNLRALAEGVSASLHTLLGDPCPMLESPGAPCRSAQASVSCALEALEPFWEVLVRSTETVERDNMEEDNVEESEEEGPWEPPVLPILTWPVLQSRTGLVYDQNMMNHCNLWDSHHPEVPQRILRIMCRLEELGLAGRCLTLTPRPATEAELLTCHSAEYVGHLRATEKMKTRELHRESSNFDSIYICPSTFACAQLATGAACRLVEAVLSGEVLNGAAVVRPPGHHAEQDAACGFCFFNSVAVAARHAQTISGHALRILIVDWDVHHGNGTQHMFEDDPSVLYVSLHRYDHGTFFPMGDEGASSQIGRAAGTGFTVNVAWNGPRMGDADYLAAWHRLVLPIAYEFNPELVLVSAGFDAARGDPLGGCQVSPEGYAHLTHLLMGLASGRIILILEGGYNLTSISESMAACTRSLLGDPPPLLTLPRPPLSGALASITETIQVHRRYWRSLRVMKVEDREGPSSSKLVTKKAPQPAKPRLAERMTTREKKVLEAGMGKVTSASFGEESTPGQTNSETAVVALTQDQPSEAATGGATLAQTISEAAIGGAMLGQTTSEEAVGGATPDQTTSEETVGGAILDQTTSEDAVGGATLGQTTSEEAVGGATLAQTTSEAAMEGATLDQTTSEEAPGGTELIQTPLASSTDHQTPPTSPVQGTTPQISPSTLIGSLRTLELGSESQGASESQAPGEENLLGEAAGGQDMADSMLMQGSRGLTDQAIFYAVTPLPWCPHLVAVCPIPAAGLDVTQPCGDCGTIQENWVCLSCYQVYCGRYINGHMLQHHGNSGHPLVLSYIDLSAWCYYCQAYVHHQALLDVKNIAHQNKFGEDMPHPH
In words: Inhibition of HDAC6 (unknown origin) incubated for 60 mins by microplate reader analysis.

Experiment [2] has as its target Tyrosine-protein kinase JAK2 (Homo sapiens, UniProt O60674). As to the kind of experiment: Inhibition of JAK2 (unknown origin) preincubated for 60 mins followed by reagent A addition and measured after 60 mins in presence of ATP by using microplate reader method.
The target of experiment [3] is T2, Tyrosine-protein kinase JAK3 (Homo sapiens, UniProt P52333).
T2 sequence (P52333 whole entry): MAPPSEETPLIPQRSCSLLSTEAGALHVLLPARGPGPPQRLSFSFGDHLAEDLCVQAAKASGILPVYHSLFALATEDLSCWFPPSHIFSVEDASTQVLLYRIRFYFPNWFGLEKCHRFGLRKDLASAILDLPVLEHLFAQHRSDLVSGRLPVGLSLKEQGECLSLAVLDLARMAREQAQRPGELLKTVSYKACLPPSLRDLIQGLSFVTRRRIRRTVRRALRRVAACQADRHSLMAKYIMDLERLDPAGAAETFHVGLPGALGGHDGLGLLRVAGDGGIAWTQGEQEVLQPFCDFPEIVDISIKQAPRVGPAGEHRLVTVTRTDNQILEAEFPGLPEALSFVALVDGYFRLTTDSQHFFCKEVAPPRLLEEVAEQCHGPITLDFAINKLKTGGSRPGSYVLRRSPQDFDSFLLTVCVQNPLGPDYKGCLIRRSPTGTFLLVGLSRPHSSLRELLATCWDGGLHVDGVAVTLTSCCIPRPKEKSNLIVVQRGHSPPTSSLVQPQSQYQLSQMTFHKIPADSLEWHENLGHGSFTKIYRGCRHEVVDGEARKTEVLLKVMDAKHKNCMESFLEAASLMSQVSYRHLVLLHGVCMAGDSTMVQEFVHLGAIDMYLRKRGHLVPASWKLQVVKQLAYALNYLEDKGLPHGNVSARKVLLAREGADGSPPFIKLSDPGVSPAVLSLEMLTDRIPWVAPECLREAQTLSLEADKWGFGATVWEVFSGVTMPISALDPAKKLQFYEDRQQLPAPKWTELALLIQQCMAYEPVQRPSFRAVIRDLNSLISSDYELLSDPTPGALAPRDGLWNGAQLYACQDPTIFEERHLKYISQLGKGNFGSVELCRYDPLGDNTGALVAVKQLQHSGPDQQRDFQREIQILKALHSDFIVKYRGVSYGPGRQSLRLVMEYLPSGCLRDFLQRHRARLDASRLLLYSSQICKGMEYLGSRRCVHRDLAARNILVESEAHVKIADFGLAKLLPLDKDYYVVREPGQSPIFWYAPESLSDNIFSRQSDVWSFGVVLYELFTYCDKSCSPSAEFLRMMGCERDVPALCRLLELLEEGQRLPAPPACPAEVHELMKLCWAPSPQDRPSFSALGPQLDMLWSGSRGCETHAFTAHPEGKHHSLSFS
In words: Inhibition of JAK3 (unknown origin) preincubated for 60 mins followed by reagent A addition and measured after 60 mins in presence of ATP by using microplate reader method.

The next experiment concerns the target Histone deacetylase 1 (Homo sapiens, UniProt Q13547). As to the kind of experiment: Inhibition of HDAC1 (unknown origin) incubated for 60 mins using microplate reader analysis.
For experiment [4], the target named is Tyrosine-protein kinase JAK1 (Homo sapiens, UniProt P23458). As to the kind of experiment: Inhibition of JAK1 (unknown origin) preincubated for 60 mins followed by reagent A addition and measured after 60 mins in presence of ATP by using microplate reader method.
For experiment [5], the target named is T3, Protein deacetylase HDAC6 (Homo sapiens) (UniProt Q9UBN7).
T3 sequence (whole entry): T1 sequence (Q9UBN7 whole entry)
In words: Inhibition of HDAC6 (unknown origin) at 10 nM incubated for 60 mins by microplate reader analysis relative to control.

The target in experiment [6] is Non-receptor tyrosine-protein kinase TYK2 (Homo sapiens, UniProt P29597). In words: Inhibition of TYK2 (unknown origin) incubated for 40 min in presence of ATP by microplate reader analysis.

The term pIC50 denotes the IC50 on a negative log10 scale, so that one unit is a factor of ten. The term inhibition denotes the share of the control response that was lost under treatment. Low readings indicate a weak effect, high ones a strong effect.

Molecules are shown by their SMILES. pIC50: −log10 of the molar value. A value given as a limit tells only on which side of the number the result lay.

Sequence of Histone deacetylase 1 (Q13547 whole entry): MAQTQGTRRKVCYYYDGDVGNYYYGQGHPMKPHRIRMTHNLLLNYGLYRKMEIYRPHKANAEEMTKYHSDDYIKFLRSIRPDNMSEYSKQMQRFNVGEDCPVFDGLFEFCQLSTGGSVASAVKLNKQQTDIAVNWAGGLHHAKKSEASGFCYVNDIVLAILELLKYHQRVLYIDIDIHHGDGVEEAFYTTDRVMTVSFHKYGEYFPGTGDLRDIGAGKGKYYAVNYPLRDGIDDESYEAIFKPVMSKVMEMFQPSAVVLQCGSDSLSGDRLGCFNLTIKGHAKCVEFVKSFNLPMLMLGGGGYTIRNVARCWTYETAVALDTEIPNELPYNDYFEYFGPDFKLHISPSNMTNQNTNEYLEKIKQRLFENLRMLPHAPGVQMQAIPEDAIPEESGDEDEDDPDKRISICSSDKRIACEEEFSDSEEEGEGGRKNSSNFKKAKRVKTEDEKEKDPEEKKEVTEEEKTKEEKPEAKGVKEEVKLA
Sequence of Tyrosine-protein kinase JAK1 (P23458 whole entry): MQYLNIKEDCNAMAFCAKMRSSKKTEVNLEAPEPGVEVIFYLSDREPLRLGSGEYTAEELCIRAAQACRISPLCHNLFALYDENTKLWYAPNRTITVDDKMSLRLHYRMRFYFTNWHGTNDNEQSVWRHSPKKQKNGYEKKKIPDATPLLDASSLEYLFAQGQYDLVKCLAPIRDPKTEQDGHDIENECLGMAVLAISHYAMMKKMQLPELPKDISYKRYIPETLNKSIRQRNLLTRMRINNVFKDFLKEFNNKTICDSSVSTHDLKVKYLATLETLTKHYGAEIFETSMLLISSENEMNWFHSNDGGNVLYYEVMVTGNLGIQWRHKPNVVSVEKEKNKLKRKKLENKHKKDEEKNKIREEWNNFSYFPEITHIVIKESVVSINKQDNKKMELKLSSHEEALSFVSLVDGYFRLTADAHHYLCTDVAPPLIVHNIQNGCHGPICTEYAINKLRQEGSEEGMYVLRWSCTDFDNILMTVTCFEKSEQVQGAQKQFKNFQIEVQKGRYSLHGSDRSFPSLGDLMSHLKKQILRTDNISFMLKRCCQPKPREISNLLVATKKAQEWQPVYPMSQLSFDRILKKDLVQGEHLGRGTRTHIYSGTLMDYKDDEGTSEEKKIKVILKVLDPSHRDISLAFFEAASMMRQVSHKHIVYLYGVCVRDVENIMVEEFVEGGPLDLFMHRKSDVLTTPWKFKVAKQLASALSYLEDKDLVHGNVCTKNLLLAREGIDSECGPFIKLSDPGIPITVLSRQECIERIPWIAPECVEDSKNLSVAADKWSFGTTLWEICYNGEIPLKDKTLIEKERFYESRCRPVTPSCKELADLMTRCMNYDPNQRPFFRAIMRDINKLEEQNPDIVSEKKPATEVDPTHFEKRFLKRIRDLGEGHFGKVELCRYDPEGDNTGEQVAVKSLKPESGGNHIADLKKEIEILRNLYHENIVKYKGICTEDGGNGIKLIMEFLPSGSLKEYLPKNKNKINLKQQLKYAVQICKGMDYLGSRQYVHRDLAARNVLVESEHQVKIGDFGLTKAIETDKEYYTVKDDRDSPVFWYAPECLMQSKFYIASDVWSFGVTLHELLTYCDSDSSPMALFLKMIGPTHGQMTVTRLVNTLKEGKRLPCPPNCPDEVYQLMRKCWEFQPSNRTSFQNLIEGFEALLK
Sequence of Tyrosine-protein kinase JAK2 (O60674 whole entry): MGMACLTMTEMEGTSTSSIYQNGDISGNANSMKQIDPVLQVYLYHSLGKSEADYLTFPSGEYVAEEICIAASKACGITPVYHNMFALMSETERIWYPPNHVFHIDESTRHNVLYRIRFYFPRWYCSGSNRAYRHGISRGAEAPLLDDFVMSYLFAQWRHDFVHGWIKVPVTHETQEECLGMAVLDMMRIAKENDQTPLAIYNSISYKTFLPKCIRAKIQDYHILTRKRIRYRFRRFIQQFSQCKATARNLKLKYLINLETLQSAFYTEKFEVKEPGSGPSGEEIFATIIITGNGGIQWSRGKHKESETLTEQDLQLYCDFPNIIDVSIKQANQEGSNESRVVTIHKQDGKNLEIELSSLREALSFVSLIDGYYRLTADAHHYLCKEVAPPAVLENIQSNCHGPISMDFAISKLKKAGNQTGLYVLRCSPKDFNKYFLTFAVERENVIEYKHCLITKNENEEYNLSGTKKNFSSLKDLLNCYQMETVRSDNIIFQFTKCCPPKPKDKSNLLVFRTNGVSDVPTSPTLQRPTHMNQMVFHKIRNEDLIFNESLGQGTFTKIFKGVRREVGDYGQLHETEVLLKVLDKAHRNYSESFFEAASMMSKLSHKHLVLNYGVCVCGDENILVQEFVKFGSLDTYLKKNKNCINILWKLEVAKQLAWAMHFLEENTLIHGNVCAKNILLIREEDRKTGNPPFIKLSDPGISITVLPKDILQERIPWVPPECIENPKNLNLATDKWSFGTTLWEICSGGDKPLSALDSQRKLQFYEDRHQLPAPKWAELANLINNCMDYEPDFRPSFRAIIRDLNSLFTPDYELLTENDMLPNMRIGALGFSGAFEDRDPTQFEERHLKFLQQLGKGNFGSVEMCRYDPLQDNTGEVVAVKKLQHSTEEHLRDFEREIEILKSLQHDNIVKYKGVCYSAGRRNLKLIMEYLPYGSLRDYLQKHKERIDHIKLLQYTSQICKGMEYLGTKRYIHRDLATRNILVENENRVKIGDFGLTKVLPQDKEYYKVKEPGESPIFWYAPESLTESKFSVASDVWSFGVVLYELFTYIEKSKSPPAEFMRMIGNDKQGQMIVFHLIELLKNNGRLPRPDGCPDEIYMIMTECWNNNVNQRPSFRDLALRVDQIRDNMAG
Sequence of Non-receptor tyrosine-protein kinase TYK2 (P29597 whole entry): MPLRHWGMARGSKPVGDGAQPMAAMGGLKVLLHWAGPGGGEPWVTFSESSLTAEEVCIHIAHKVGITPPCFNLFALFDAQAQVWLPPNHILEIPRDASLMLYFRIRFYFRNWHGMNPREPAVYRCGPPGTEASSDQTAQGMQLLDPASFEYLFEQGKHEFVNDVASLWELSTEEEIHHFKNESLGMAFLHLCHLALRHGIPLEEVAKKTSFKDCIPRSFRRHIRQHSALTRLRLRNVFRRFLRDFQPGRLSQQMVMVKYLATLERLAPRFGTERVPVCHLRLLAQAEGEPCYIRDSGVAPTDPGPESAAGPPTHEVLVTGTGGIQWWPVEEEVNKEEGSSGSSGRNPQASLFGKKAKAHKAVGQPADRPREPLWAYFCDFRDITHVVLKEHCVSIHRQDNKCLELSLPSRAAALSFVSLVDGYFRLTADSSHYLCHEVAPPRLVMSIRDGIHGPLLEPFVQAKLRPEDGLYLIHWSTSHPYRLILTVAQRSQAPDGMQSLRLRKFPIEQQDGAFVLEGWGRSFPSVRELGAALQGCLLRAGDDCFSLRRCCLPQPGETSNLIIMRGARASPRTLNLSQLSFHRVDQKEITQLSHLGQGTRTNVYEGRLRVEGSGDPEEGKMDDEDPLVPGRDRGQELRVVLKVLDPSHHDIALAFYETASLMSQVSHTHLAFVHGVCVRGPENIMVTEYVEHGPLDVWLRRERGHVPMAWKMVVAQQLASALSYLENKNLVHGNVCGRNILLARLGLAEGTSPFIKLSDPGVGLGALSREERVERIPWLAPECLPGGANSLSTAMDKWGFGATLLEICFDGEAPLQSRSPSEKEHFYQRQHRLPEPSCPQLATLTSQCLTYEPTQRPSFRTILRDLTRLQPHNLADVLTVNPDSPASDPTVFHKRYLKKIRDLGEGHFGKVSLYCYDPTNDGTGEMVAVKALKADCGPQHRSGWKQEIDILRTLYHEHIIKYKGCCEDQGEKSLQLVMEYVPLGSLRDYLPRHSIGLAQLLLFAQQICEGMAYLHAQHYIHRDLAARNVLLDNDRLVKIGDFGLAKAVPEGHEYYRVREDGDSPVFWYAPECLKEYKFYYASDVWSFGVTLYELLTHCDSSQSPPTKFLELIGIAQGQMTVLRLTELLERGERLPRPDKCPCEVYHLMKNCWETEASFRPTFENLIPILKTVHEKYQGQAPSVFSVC

Take `COc1cccc(Cn2ccc3cnc(Nc4cnn(CCCCCC(=O)NO)c4)nc32)c1`: the negative logarithm of the IC50 (pIC50) is 7.42 in experiment [1] and 6.91 in experiment [2].

Take `COc1cccc(Cn2ccc3cnc(Nc4cnn(CCCCCCC(=O)NO)c4)nc32)c1`: the values for the negative-log IC50 (pIC50) in experiment [1] and in experiment [2] were 7.54 and 6.68, respectively.

As to `O=C(CCCCCCn1cc(Nc2ncc3ccn(CC4CCCCC4)c3n2)cn1)NO`, the negative-log IC50 (pIC50) in experiment [1] is 7.06; in experiment [2], 7.16.

In the case of `O=C(CCCCCn1cc(Nc2ncc3ccn(Cc4cccc(F)c4)c3n2)cn1)NO`, the negative-log IC50 (pIC50) was 7.90 in experiment [3]; 7.86 in experiment [1]; 6.76 against Histone deacetylase 1; 8.06 in experiment [4]; 8.39 in experiment [2].

On to `CS(=O)(=O)c1ccc(-n2ccc3cnc(Nc4cnn(CCCCCCC(=O)NO)c4)nc32)cc1`, for which the pIC50 was 8.23 in experiment [1] and 7.80 in experiment [2].

On to `Cc1ccc(Cn2ccc3cnc(Nc4cnn(CCCCCC(=O)NO)c4)nc32)cc1`, for which the pIC50 in experiment [2] is under 7.00. The molecule further came in with an inhibition in experiment [5] of 34%.

Turning to `O=C(CCCCCCn1cc(Nc2ncc3ccn(Cc4ccccc4Cl)c3n2)cn1)NO`, the pIC50 in experiment [1] was 7.38; in experiment [2] it was 7.51.

As for `O=C(CCCCCn1cc(Nc2ncc3ccn(CCc4ccccc4)c3n2)cn1)NO`, in experiment [2], the negative logarithm of the IC50 (pIC50) is under 7.00. The molecule also showed an inhibition in experiment [5] of 41%.

Regarding `COc1ccc(Cn2ccc3cnc(Nc4cnn(CCCCCCC(=O)NO)c4)nc32)cc1`, in experiment [2], the pIC50 was under 7.00. The inhibition in experiment [5] was found to be 40%.

Take `O=C(CCCCCn1cc(Nc2ncc3ccn(Cc4cccc(Cl)c4)c3n2)cn1)NO`: the pIC50 is 7.46 in experiment [1] and 7.75 in experiment [2].

As for `O=C(CCCCCCn1cc(Nc2ncc3ccn(CC4CC4)c3n2)cn1)NO`, the pIC50 is 7.80 in experiment [1] and under 7.00 in experiment [2].

For the molecule `O=C(CCCCCCn1cc(Nc2ncc3ccn(Cc4cccc(Cl)c4)c3n2)cn1)NO`, the pIC50 in experiment [1] is 7.43; in experiment [2], 7.40.

On to `O=C(CCCCCCn1cc(Nc2ncc3ccn(-c4ccccc4)c3n2)cn1)NO`, for which the pIC50 in experiment [3] is 7.09; in experiment [1] it was 7.88; on Histone deacetylase 1 it was 7.28; in experiment [4], 7.71; in experiment [2], 7.77; in experiment [6] it was 7.63.

On to `O=C(CCCCCn1cc(Nc2ncc3ccn(Cc4ccccc4Cl)c3n2)cn1)NO`, for which the pIC50 in experiment [1] was 7.35; in experiment [2], 7.61.

As for `O=C(CCCCCCn1cc(Nc2ncc3ccn(Cc4ccc(Cl)cc4)c3n2)cn1)NO`, the pIC50 in experiment [2] was under 7.00. In addition, the inhibition in experiment [5] worked out at 39%.

In the case of `O=C(CCCCCn1cc(Nc2ncc3ccn(Cc4ccccc4F)c3n2)cn1)NO`, the pIC50 in experiment [3] is 7.74; in experiment [1] it was 7.82; at Histone deacetylase 1, 6.84; in experiment [4] it was 7.49; in experiment [2], 8.00; in experiment [6], 7.88.

For `O=C(CCCCCCn1cc(Nc2nccc(-c3cc(F)cc(F)c3)n2)cn1)NO`, the pIC50 in experiment [2] is 5.57.

`COc1ccc(Cn2ccc3cnc(Nc4cnn(CCCCCC(=O)NO)c4)nc32)cc1`: the pIC50 in experiment [2] is under 7.00. The inhibition in experiment [5] is 46%.

As to `O=C(CCCCCCn1cc(Nc2ncc3ccn(-c4ccc(Br)cc4)c3n2)cn1)NO`, the negative logarithm of the IC50 (pIC50) in experiment [1] is 7.69; in experiment [2] it was 7.26.

`O=C(CCCCCCn1cc(Nc2ncc3ccn(CCc4ccccc4)c3n2)cn1)NO`: the negative logarithm of the IC50 (pIC50) in experiment [2] was under 7.00. Besides, the inhibition in experiment [5] was determined as 49%.

`O=C(CCCCCCn1cc(Nc2ncc3ccn(-c4ccc(F)cc4)c3n2)cn1)NO`: the negative logarithm of the IC50 (pIC50) is 7.67 in experiment [1] and 7.48 in experiment [2].

For `O=C(CCCCCCn1cc(Nc2ncc3ccn(Cc4ccc(F)cc4)c3n2)cn1)NO`, the negative logarithm of the IC50 (pIC50) in experiment [2] was under 7.00. In experiment [5], this molecule had an inhibition of 62%.

Regarding `O=C(CCCCCCn1cc(Nc2ncc3ccn(C4CCCC4)c3n2)cn1)NO`, the pIC50 in experiment [1] was 7.66; in experiment [2] it was under 7.00.

As for `O=C(CCCCCCn1cc(Nc2nc(Nc3cccc(Cl)c3)c3ccccc3n2)cn1)NO`, the negative logarithm of the IC50 (pIC50) in experiment [2] was 5.03.

In the case of `O=C(CCCCCn1cc(Nc2ncc3ccn(Cc4ccc(F)cc4)c3n2)cn1)NO`, the negative-log IC50 (pIC50) in experiment [2] was under 7.00. The molecule further registered an inhibition in experiment [5] of 46%.

For `O=C(CCCCCn1cc(Nc2ncc3ccn(-c4ccc(Br)cc4)c3n2)cn1)NO`, the pIC50 is 7.95 in experiment [1] and 7.76 in experiment [2].

For `O=C(CCCCCn1cc(Nc2ncc3ccn(Cc4ccccc4)c3n2)cn1)NO`, the values for the pIC50 in experiment [1] and in experiment [2] were 7.86 and 7.48, respectively.

Take `Cc1ccc(Cn2ccc3cnc(Nc4cnn(CCCCCCC(=O)NO)c4)nc32)cc1`: in experiment [2], the pIC50 was under 7.00. The inhibition in experiment [5] came to 38%.

`CS(=O)(=O)c1ccc(-n2ccc3cnc(Nc4cnn(CCCCCC(=O)NO)c4)nc32)cc1`: the results for the negative logarithm of the IC50 (pIC50) in experiment [1] and in experiment [2] were 7.97 and 8.01, respectively.

Take `O=C(CCCCCn1cc(Nc2ncc3ccn(Cc4ccc(Cl)cc4)c3n2)cn1)NO`: in experiment [2], the pIC50 is under 7.00. Besides, the inhibition in experiment [5] was 38%.

As for `O=C(CCCCCCn1cc(Nc2ncc3ccn(-c4ccc(Cl)cc4)c3n2)cn1)NO`, the pIC50 in experiment [1] was 7.48; in experiment [2] it was 7.32.

As for `O=C(CCCCCCn1cc(Nc2ncc3ccn(Cc4ccccc4)c3n2)cn1)NO`, the pIC50 was 7.90 in experiment [1] and 7.29 in experiment [2].
